For assay [1], the system named is traumatic osteoarthritis model. The assay can be described thus: MMT surgery traumatic osteoarthritis model, test for preventive efficacy. The assay is classed as in vivo, SD rats. Particulars: compared to the OA group; intra-articular injection 3 days and 1 day before MMT surgery; 0.1 mg/kg; sacrificed day 7. The method, then: In this example, a traumatic osteoarthritis model was established by performing a medial meniscus tear (MMT) surgery to verify the preventive effect of the PACE4 inhibitory peptides on OA. In the test for preventive efficacy, the PACE4 inhibitory peptide was administered via intra-articular injection 3 days and 1 day before the modeling surgery (i.e., a total of 2 administrations). In the following examples, the dosage of PACE4 inhibitory peptide was 0.1 mg/kg animal body weight.
Specifically, in the test for preventive efficacy, 24 SD rats were divided into 3 groups (including a control group, an OA modeling group (surgery group), and an OA modeling + preventive administration group (surgery group + drug intervention)), with 8 rats per group. For the OA modeling + preventive administration group, intra-articular injections were administered 3 days and 1 day before MMT surgery. Rats in each group were sacrificed on day 7 after modeling, and joint tissues were collected. Each PACE4 inhibitory peptide was tested individually to determine the preventive effect of each PACE4 inhibitory peptide. Among them, the polypeptide Ac-R-F-K-R-NH2 (control molecule) was selected as a control example. […]

For assay [2], the system named is traumatic osteoarthritis model. The assay can be described thus: MMT surgery traumatic osteoarthritis model, test for therapeutic efficacy. It counts as in vivo, Sprague Dawley (SD) rats. The note with it: compared to the OA group; intra-articular injection on day 3 and day 10 after MMT surgery; sacrificed day 14. As to the method:
In this example, a traumatic osteoarthritis model was established by performing a medial meniscus tear (MMT) surgery to verify the therapeutic effect of the PACE4 inhibitory peptides on OA. In the test for therapeutic efficacy, the injections were administered on day 3 and day 10 after the surgical modeling (i.e., a total of 2 administrations).
Specifically, in the test for therapeutic efficacy, 24 Sprague Dawley (SD) rats were divided into 3 groups (including a control group, an OA modeling group (surgery group), and an OA modeling + therapeutic administration group (surgery group + drug intervention)), with 8 rats per group. For the OA modeling + therapeutic administration group, intra-articular injections were administered on day 3 and day 10 after MMT surgery. Rats in each group were sacrificed on day 14 after modeling, and joint tissues were collected. Each PACE4 inhibitory peptide was tested individually to determine the therapeutic effect of each PACE4 inhibitory peptide. Among them, the polypeptide Ac-R-F-K-R-NH2 (control molecule) was selected as a control example.
Cartilage tissue was collected from each group as samples. The collected cartilage tissue samples were decalcified according to conventional procedures in the art, then embedded in paraffin, and sectioned at a thickness of 7 µm. Safranin O-fast green staining was performed, and the cartilage degeneration was assessed using OARSI scoring. In addition, TRAP staining was performed to determine the subchondral bone resorption in rats before and after MMT surgery and during treatment with the PACE4 inhibitory peptide.

Another assay concerns the target T1, PACE4 (Homo sapiens, UniProt P29122).
T1 sequence (P29122 150-969): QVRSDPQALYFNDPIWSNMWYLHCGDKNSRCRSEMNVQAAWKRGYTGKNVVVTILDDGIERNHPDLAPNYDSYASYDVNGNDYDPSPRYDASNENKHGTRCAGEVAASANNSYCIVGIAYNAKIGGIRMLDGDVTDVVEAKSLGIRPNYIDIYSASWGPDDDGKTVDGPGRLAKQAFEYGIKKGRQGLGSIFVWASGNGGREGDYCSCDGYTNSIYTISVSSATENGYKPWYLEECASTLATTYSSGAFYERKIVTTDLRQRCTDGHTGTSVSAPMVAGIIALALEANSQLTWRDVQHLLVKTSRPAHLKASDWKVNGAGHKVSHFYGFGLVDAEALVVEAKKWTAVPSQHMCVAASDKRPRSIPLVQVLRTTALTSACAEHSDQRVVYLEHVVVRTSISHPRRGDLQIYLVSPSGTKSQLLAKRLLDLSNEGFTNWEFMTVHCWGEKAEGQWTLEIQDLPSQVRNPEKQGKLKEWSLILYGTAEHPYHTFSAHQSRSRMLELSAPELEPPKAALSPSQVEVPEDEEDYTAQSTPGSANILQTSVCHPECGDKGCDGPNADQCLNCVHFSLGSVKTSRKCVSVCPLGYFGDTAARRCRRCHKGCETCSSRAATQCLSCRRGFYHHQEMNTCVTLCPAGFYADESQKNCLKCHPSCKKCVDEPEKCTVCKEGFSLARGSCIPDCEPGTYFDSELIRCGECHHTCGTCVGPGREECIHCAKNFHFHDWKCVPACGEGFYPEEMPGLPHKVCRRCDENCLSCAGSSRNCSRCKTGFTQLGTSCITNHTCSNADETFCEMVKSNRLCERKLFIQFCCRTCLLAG
Put plainly: PACE4 enzyme inhibition experiment (fluorogenic substrate, competitive inhibition). It counts as biochemical. Particulars: substrate pyroGlu-Arg-Val-Lys-Arg-methyl-coumaryl-7-amide 100 µM, pH 6.5, 37°C, 60 min. As to the method:
The PACE4 inhibitory peptides obtained from the above example were subjected to in vitro assay of PACE4 inhibitory effect. The specific steps were as follows: the PACE4 enzyme inhibition experiment was performed in a solution containing 20 mM Bis-Tis at pH 6.5, 1 mM CaCl2, and 1.8 mg/mL BSA. All assays were performed using pyroGlu-Arg-Val-Lys-Arg-methyl-coumaryl-7-amide (Bachem, CA) (100 µM) as the substrate. The assay was conducted at 37°C for 60 min. A Gemini EM 96-well fluorescence spectrometer (Molecular Devices, CA) (Ex: 370 nm, Em: 460 nm) was used. The PACE4 inhibitory peptide involved in the present patent was added to the test solution at different concentrations for competitive inhibition assay to determine the IC50 value of the peptide.

We go through seven molecules from patent EP4789680A1, “NOVEL PACE4 INHIBITOR AND USE THEREOF IN ANTI-OSTEOARTHRITIS” (Inflamax Pharmaceuticals Limited, priority 2023, dated 2025).

Where a SMILES comes first, the peptide text is derived from it. [ ]: non-standard residue; d: D form. ξ: configuration not given here. Abu(1-amidino-4-piperidyl) = N=C(N)N1CCC(CC[C@H](N)C(=O)O)CC1; Phe(4-guanidino) = N=C(N)Nc1ccc(C[C@H](N)C(=O)O)cc1; Phe(4-CF3) = N[C@@H](Cc1ccc(C(F)(F)F)cc1)C(=O)O; dThr(3ξ) = CC(O)[C@@H](N)C(=O)O

`CC(=O)N[C@@H](CCCNC(=N)N)C(=O)N[C@@H](Cc1ccccc1)C(=O)N[C@@H](CCCCN)C(=O)N[C@@H](CCCNC(=N)N)C(N)=O` [Ac-R-F-K-R-NH2] (Ac-RFKR-NH2): the “OARSI score reduced, preventive test” value in assay [1] worked out at 4%. Besides, the “OARSI score reduced, therapeutic test” value in assay [2] stood at 10%. Regarding `CC(=O)N[C@H](CCCNC(=N)N)C(=O)N[C@@H](CCCNC(=N)N)C(=O)N[C@@H](Cc1ccccc1)C(=O)N[C@@H](CCCCN)C(=O)N[C@@H](CCCNC(=N)N)C(=O)N[C@@H](C(N)=O)[C@H](C)O` [Ac-dR-R-F-K-R-dT-NH2] (Ac-[dR]RFKR[dT]-NH2), the “OARSI score reduced, therapeutic test” value in assay [2] is recorded as 28%. `CC(=O)N[C@@H](CCCNC(=N)N)C(=O)N[C@@H](CCCNC(=N)N)C(=O)N[C@@H](CCC1CCN(C(=N)N)CC1)C(=O)N[C@@H](CCCCN)C(=O)N[C@@H](CCCNC(=N)N)C(=O)N[C@@H](C(N)=O)C(C)O` (some centres unmarked) [Ac-R-R-A(4-Pip)-K-R-dT-NH2] (Ac-RR[Abu(1-amidino-4-piperidyl)]KR[dThr(3ξ)]-NH2): the IC50 on PACE4 was determined as 0.09 µM.

Regarding `CC(=O)N[C@H](CCCNC(=N)N)C(=O)N[C@@H](CCCNC(=N)N)C(=O)N[C@@H](Cc1ccc(NC(=N)N)cc1)C(=O)N[C@@H](CCCCN)C(=O)N[C@@H](CCCNC(=N)N)C(=O)N[C@@H](C(N)=O)[C@H](C)O` [Ac-dR-R-F(4-Guan)-K-R-dT-NH2] (Ac-[dR]R[Phe(4-guanidino)]KR[dT]-NH2), in assay [2], the “OARSI score reduced, therapeutic test” value was 38.5%. In the case of `C[C@H](O)[C@@H](NC(=O)[C@H](CCCNC(=N)N)NC(=O)[C@H](CCCCN)NC(=O)[C@H](Cc1ccccc1)NC(=O)[C@H](CCCNC(=N)N)NC(=O)[C@@H](CCCNC(=N)N)NC(=O)[C@H]1CCCN1)C(N)=O` [dP-dR-R-F-K-R-dT-NH2] (H-[dP][dR]RFKR[dT]-NH2), at PACE4, the IC50 is 0.07 µM.

Regarding `CC(=O)N[C@@H](CCCNC(=N)N)C(=O)N[C@@H](CCCNC(=N)N)C(=O)N[C@@H](Cc1ccc(C(F)(F)F)cc1)C(=O)N[C@@H](CCCCN)C(=O)N[C@@H](CCCNC(=N)N)C(=O)N[C@@H](C(N)=O)[C@H](C)O` [Ac-R-R-F(4-CF3)-K-R-dT-NH2] (Ac-RR[Phe(4-CF3)]KR[dT]-NH2), the IC50 at PACE4 worked out at 0.09 µM. `CC(=O)N[C@H](CCCNC(=N)N)C(=O)N[C@@H](CCCNC(=N)N)C(=O)N[C@@H](Cc1ccc(C(F)(F)F)cc1)C(=O)N[C@@H](CCCCN)C(=O)N[C@@H](CCCNC(=N)N)C(=O)N[C@@H](C(N)=O)[C@H](C)O` [Ac-dR-R-F(4-CF3)-K-R-dT-NH2] (Ac-[dR]R[Phe(4-CF3)]KR[dT]-NH2): the “OARSI score reduced, therapeutic test” value in assay [2] turned out to be 34.6%.

For orientation: IC50 means the midpoint of a concentration-inhibition curve. A higher IC50 goes with lower potency.
